{
  "source": "patent US10286039B2",
  "about": "“Compositions and methods for treating neutropenia” (Children's Hospital Los Angeles, priority 2014, dated 2019)",
  "molecules": {"B1": {"name": "GCSF: granulocyte colony-stimulating factor (protein, UniProt P09919 31-207, looked up)", "Granulocyte …": "TPLGPASSLPQSFLLKCLEQVRKIQGDGAALQEKLVSECATYKLCHPEELVLLGHSLGIPWAPLSSCPSQALQLAGCLSQLHSGLFLYQGLLQALEGISPELGPTLDTLQLDVADFATTIWQQMEELGMAPALQPTQGAMPAFASAFQRRAGGVLVASHLQSFLEVSYRVLRHLAQP"}},
  "key": {"neutropenic mice": {"system": "neutropenic mice", "assay": "Neutrophil recovery in CPA-induced neutropenic mice at neutrophil-decrease stage", "type": "in vivo, C57BL6/J mice", "description": "To evaluate Am80 effect in vivo, we first tested half maximal effective concentration (EC50) of different human equivalent high, medium, and low doses of Am80 and GCSF (FIG. 5a) on regenerating mature neutrophils in neutropenic mice. Normal C57BL6/J mice were injected with a single dose of cyclophosphamide (CPA) to reduce mouse neutrophils. At 4 hr post-injection of CPA, mice were treated with vehicle, Am80, GCSF, or Am80-GCSF for consecutive 3 days before mice were sacrificed (FIG. 5b). […] Data represent 2 independent experiments with similar results."}, "S. aureus [1]": {"system": "S. aureus", "assay": "Neutrophil bactericidal activity, neutropenic mice at neutrophil-decrease stage, medium dose", "type": "in vivo, C57BL/6J mice", "conditions": "for neutrophil induction by bacterial infection: neutrophil-decrease stage, Vetscan analysis of PB", "description": "FIG. 6A experimental design. C57BL/6J mice (n=19) were randomly divided into five groups (3 for control and 4 for each of experimental groups). Mouse neutropenia was induced by IP injection of CPA on day 0. After 4 hrs of CPA injection, different regimens were given to mice once a day, with Am80 by oral or GCSF by SC or vehicle by oral. Mice were challenged by 6.3×10^6 CFU of S. aureus on day 2 via tail vein injection. After 3 hrs infection, each 100 μl blood was collected from tails for analysis of initial bactericidal activity of neutrophils. The mice were sacrificed 16 hrs post-infection, by which PB and heart were harvested. (FIG. 6B) Vetscan analysis of WBC and neutrophils in PB. Except blank mice, neutrophil induction was not observed in all other groups (FIG. 6C-E). Bactericidal activities of neutrophils were determined 3 hr (FIG. 6C) and 16 hrs post-infection (FIG. 6D) in PB as well as in heart (panel E), by using blood agar analysis of viable extracellular bacteria. […] A+G: Am80-GCSF."}, "S. aureus [2]": {"system": "S. aureus", "assay": "Neutrophil bactericidal activity, neutropenic mice at neutrophil-decrease stage, lower dose", "type": "in vivo, C57BL/6J mice", "conditions": "for neutrophil induction by bacterial infection: neutrophil-decrease stage, Vetscan analysis of PB", "description": "Mice (C57BL6/J) were randomly divided into five groups (3 control and 4 for each experimental group, n=19 mice). C57BL/6J mice (n=19) were randomly divided into five groups (3 for control and 4 for each of experimental groups). The procedures for induction of mouse neutropenia and treatment are the same to the medium dose test (see slide 6). Mice were challenged with 6.3×10^6 CFU of S. aureus on day 2 via tail vein injection. After 3 hrs infection, each 100 μl blood was collected from tails for determining initial bactericidal activities of neutrophils. The mice were sacrificed on day 3, by which PB and spleen were harvested. (FIG. 7A). Vetscan analysis of WBC and neutrophils in PB was performed (FIG. 7B). Except blank mice, neutrophil induction was not observed in all other groups (FIG. 7C-E). Bactericidal activities of neutrophils were determined 3 hr (panel C) and 16 hrs post-infection (panel D) in PB as well as in spleen (panel E), using blood agar analysis of viable extracellular bacteria."}, "CD34+ cells": {"system": "CD34+ cells", "assay": "Western blot and gene transcription in CD34+ cells", "type": "cell-based", "source_text": "A novel gene transcription pattern is induced by Am80, in contrast to All-trans retinoic acid (ATRA or RA)."}, "S. Aureus [3]": {"system": "S. Aureus", "assay": "Neutrophil bactericidal activity and production, neutropenic mice at neutrophil-recovery stage, lower dose", "type": "in vivo, Mice (C57BL6/J)", "description": "Mice (C57BL6/J) were randomly divided into five groups (3 control and 4 for each experimental group, n=19 mice). As illustrated (FIG. 8a), mice were given regimens 2 days post-CPA injection (200 mg/kg). After consecutive 3 days of treatment, mice were challenged with S. Aureus for up to 16 hrs before euthanasia. We found a significant increase of peripheral blood (PB) neutrophils in all groups after bacterial infection (FIG. 8b). PB collected at 3 and 16 hrs-post infection was used for analyzing of neutrophil bactericidal activities. […] However, with low doses of Am80-GCSF treatment, Am80 can effectively differentiate GCSF-regenerated granulocytic precursors into mature neutrophils against microbial infection. P<0.05; **: P<0.01; ***: P<0.005."}, "S. Aureus [4]": {"system": "S. Aureus", "assay": "Survival of neutropenic mice enduring continual bacteremia", "type": "in vivo", "conditions": "treatment 24 hrs post-CPA", "description": "If Am80 can indeed differentiate GCSF-regenerated great amount of granulocytic precursors into mature neutrophils against infection, Am80-GCSF combination should effectively reduce infection-related mortality in cancer chemotherapy induced neutropenia. We tested this hypothesis by using neutropenic mice experiencing bacteremia through entire neutropenia period. As illustrated (FIG. 9A), mice were given different regimens 4 hrs post-CPA injection for up to day 8. S. Aureus infection was performed on day 3, and survival rate was calculated on day 9. […] To evaluate bactericidal ability of regenerated neutrophils in survived mice, the survived blank and Am80-GCSF mice on day 11 were further infected with S. Aureus for 15 min before euthanasia. A parallel analysis of freshly isolated PB with both Giemsa and Gram stains determined neutrophil phagocytosis in infected mice vs. free of bacteremia in non-infected mice (FIG. 9E). Since GCSF is usually provided to CCIN ≥24 hrs post-chemo drug, we further tested low and medium doses of Am80-GCSF treatment 24 hrs post-CPA, as illustrated (FIG. 9F, 9J), with two independent experiments for each of doses."}, "NB4 cells": {"system": "NB4 cells", "assay": "Proliferation, granulocytic differentiation and ROS production in NB4 cells", "type": "cell-based", "conditions": "day 6, in the presence of either fMLP or PMA"}, "AML BM primary blasts": {"system": "AML BM primary blasts", "assay": "Proliferation of primary blasts from acute myeloid leukemia patients", "type": "cell-based, human", "description": "Proliferation of PB primary blasts from acute myeloid leukemia patients was assayed (FIG. 13A) and quantified P<0.05 (FIG. 13B). Granulocytic morphology of AML PB primary blasts was analyzed (FIG. 13C) and quantified; Am80 vs. G-CSF, P<4.0E-8; Am80 vs. control, P<6.02E-7 (FIG. 13D).\nProliferation of BM primary blasts from acute myeloid leukemia patients was assayed (FIG. 13E) and quantified at day 8, Am80 vs. G-CSF, P<0.008; G-CSF vs. control, P<0.032 (FIG. 13F). Granulocytic morphology of AML BM primary blasts was analyzed (FIG. 13G) and quantified; Am80 vs. G-CSF, P<9.9E-4; Am80 vs. RA, P<1.0E-4 (FIG. 13H)."}},
  "data": [
    {"molecule": "CC1(C)CCC(C)(C)c2cc(NC(=O)c3ccc(C(=O)O)cc3)ccc21", "note": "[Am80, tamibarotene]", "values": [
      {"measurement": "sustaining neutrophil levels (PB)", "setting": "neutropenic mice; low and medium doses, 3 days treatment from 4 hr post-CPA, compared to all other treatments", "value": "better EC50 effect on sustaining neutrophil levels"},
      {"measurement": "granulocytic morphology differentiation (PB)", "setting": "neutropenic mice; low doses vs medium doses", "value": "enhanced granulocytic morphology differentiation better than did medium doses"},
      {"measurement": "neutrophil bactericidal activity", "setting": "S. aureus [1]; 3 hr and 16 hrs post-infection in PB and heart, viable extracellular bacteria", "value": "significantly increased neutrophil bactericidal activity"},
      {"measurement": "neutrophil induction by bacterial infection", "setting": "S. aureus [1]", "value": "not instigated"},
      {"measurement": "neutrophil bactericidal activity", "setting": "S. aureus [2]; 3 hr and 16 hrs post-infection in PB and spleen, viable extracellular bacteria", "value": "greater bactericidal activity than those induced by G-CSF or Am80+GCSF"},
      {"measurement": "neutrophil induction by bacterial infection", "setting": "S. aureus [2]", "value": "not instigated"},
      {"measurement": "C/EBPε, CD18, and granule LL-37 mRNA levels", "setting": "CD34+ cells", "value": "significant up-regulation"},
      {"measurement": "p21Cip/Kip mRNA levels", "setting": "CD34+ cells", "value": "decrease"},
      {"measurement": "MAT1 fragmentation", "setting": "CD34+ cells; Western blot", "value": "progressive induction"},
      {"measurement": "retinoic acid receptor (RARα) hypophosphorylation", "setting": "CD34+ cells; Western blot", "value": "progressive induction"},
      {"measurement": "neutrophil production in BM and PB", "setting": "S. Aureus [3]", "value": "induced least number of neutrophils in both BM and PB"}
    ]},
    {"molecule": "B1", "values": [
      {"measurement": "differentiation of 3rd layer BM cells, granulocytic morphologic analysis", "setting": "neutropenic mice; medium dose GCSF vs low doses of Am80-GCSF", "value": "less differentiated than those induced by low doses of Am80-GCSF"},
      {"measurement": "recovery of 3rd layer BM cells", "setting": "neutropenic mice; medium dose, Percoll separation of bone marrow cells", "value": "induced highest recovery"},
      {"measurement": "survival rate", "setting": "S. Aureus [4]; low-dose test, S. Aureus infection", "value": 12.5, "unit": "%"},
      {"measurement": "survival rate", "setting": "S. Aureus [4]; medium-dose test, no statistical difference between groups", "value": 11.1, "unit": "%"},
      {"measurement": "neutrophil induction by bacterial infection", "setting": "S. aureus [1]", "value": "not instigated"},
      {"measurement": "ROS production", "setting": "NB4 cells", "value": "fails to induce ROS production"},
      {"measurement": "growth rate of AML BM primary blasts", "setting": "AML BM primary blasts; G-CSF vs. control, P<0.018", "value": "Higher growth rate"},
      {"measurement": "growth of non-APL AML patient blasts", "setting": "AML BM primary blasts; compared to those treated with Am80 or ATRA", "value": "promotes the growth"},
      {"measurement": "neutrophil induction by bacterial infection", "setting": "S. aureus [2]", "value": "not instigated"},
      {"measurement": "neutrophil production in BM and PB", "setting": "S. Aureus [3]", "value": "induced significantly more neutrophils in BM while similar amount in PB compared to Am80-GCSF"},
      {"measurement": "neutrophil bactericidal activity (killing assays)", "setting": "S. Aureus [3]; PB at 3 and 16 hrs post-infection", "value": "significantly low bactericidal activity compared to those induced by Am80-GCSF"}
    ]}
  ]
}
